The IC50 is the concentration at which inhibition is half-maximal. The inhibition is the drop in the measured response relative to a control, in per cent.

Counter-ions that a name gives are not always drawn.

The target of the test is T1, mGluR5 receptor (Sus scrofa, UniProt I3LUI7).
T1 construct: 450 μg of protein from brain homogenate with 5 nM ^3[H]-MPEP; from tissue; host or cells: pig brain halves without medulla, cerebellum and pons
The test is described as follows: [3H]-MPEP mGluR5 receptor binding assay (pig brain homogenate). As to conditions: 5 nM [3H]-MPEP; for IC50: read-out: IC50 mGluR5 Receptor (pig) [^3H]-MPEP Bond; for inhibition at 10 µM: read-out: % Inhibition of mGluR5 Receptor (pig) [^3H]-MPEP Bond at 10 μM. The essentials: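 Compounds at 10 μM competed with 5 nM [3H]-MPEP for binding to pig brain membranes (450 μg protein) for 60 min at room temperature in pH 8.0 Hepes buffer. Bound radioactivity was collected on glass-fibre filters and read by β-counting, with 10 μM unlabelled MPEP giving non-specific binding.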

T1 sequence (I3LUI7 19-1212): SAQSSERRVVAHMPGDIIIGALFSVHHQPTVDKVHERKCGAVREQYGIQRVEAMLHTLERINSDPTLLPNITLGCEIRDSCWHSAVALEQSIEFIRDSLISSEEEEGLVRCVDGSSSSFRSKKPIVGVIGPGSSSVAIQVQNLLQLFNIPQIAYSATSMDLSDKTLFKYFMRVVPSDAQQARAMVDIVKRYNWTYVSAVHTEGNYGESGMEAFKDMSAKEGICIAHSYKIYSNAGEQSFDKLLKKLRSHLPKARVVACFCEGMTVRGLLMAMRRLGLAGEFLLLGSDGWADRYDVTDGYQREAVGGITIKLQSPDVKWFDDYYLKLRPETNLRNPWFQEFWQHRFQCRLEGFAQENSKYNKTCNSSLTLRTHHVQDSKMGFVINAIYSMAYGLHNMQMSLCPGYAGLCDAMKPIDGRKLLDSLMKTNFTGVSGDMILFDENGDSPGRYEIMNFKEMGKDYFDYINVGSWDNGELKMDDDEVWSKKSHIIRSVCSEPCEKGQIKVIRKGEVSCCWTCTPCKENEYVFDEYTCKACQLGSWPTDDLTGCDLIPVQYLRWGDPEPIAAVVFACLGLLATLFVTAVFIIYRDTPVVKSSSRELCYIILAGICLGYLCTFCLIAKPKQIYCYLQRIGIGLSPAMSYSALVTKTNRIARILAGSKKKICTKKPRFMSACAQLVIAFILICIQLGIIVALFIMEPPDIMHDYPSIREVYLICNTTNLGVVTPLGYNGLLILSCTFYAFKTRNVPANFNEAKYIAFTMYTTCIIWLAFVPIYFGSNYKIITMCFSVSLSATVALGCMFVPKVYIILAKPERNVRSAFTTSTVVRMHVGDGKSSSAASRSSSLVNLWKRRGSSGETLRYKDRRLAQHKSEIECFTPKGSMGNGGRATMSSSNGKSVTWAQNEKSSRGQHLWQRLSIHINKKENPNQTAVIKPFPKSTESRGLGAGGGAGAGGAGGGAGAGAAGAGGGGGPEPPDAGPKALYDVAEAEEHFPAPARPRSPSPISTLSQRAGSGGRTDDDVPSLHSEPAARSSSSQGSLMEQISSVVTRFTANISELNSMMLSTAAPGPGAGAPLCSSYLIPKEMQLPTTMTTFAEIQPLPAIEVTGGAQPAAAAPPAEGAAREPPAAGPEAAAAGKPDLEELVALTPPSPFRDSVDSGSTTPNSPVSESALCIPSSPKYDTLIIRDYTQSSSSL

Consider `O=C1COCC(=O)N1Cc1cccc(-c2ccc3ncnc(NC4CC4)c3c2)c1` [Example 212, 4-(3-(4-(cyclopropylamino)quinazolin-6-yl)benzyl)morpholine-3,5-dione], for which the IC50 is 0.1 µM. `COCCN(Cc1cccc(-c2ccc3ncnc(NC4CC4)c3c2)c1)C(C)=O` [Example 213, N-(3-(4-(cyclopropylamino)quinazolin-6-yl)benzyl)-N-(2-methoxyethyl)acetamide]: the inhibition at 10 µM (10 μM compound) was found to be 32%. For the molecule `CC(=O)N(CCc1ccccc1)Cc1cccc(-c2ccc3ncnc(NC4CC4)c3c2)c1` [Example 214, N-[3-(4-cyclopropylamino-quinazolin-6-yl)-benzyl]-N-phenethyl-acetamide], the IC50 stood at 6.92 µM.

Take `CS(=O)(=O)N(Cc1cccc(-c2ccc3ncnc(NC4CC4)c3c2)c1)Cc1ccco1` [Example 215, N-(3-(4-(cyclopropylamino)quinazolin-6-yl)benzyl)-N-(furan-2-yl-methyl)methane sulfonamide]: the IC50 was determined as 3.61 µM. On to `CC(=O)N(Cc1cccc(-c2ccc3ncnc(NC4CC4)c3c2)c1)Cc1ccco1` [Example 216, N-[3-(4-cyclopropylamino-quinazolin-6-yl)-benzyl]-N-furan-2-yl-methyl-acetamide], for which the half-maximal inhibitory concentration (IC50) was 1.5 µM. For `O=C1CCCN1Cc1cccc(-c2ccc3ncnc(NC4CC4)c3c2)c1` [Example 217, 1-[3-(4-cyclopropylamino-quinazolin-6-yl)-benzyl]-pyrrolidine-2-one; hydrochloride], the IC50 was 0.51 µM.

As for `CCCCN(Cc1cccc(-c2ccc3ncnc(NC4CC4)c3c2)c1)C(C)=O` [Example 218, N-butyl-N-[3-(4-cyclopropylamino-quinazolin-6-yl)-benzyl]-acetamide; hydrochloride], the IC50 was determined as 2.99 µM.

On to `CC(=O)N(Cc1ccccc1)Cc1cccc(-c2ccc3ncnc(NC4CC4)c3c2)c1` [Example 219, N-benzyl-N-[3-(4-cyclopropylamino-quinazolin-6-yl)-benzyl]-acetamide; hydrochloride], for which the inhibition at 10 µM (10 μM compound) was found to be 45%. As to `O=C1CCC(c2ccccc2)C(=O)N1Cc1cccc(-c2ccc3ncnc(NC4CC4)c3c2)c1` (stereo not drawn) [Example 220, 1-[3-(4-cyclopropylamino-quinazolin-6-yl)-benzyl]-3-phenyl-piperidine-2,6-dione; hydrochloride], the 50% inhibitory concentration (IC50) worked out at 4.25 µM.

As to `CC(=O)N(C)Cc1cccc(-c2ccc3ncnc(NC4CC4)c3c2)c1` [Example 221, N-[3-(4-cyclopropylamino-quinazolin-6-yl)-benzyl]-N-methyl-acetamide], the IC50 is 5.36 µM. On to `CS(=O)(=O)N(Cc1ccccc1)Cc1cccc(-c2ccc3ncnc(NC4CC4)c3c2)c1` [Example 222, N-benzyl-N-(3-(4-(cyclopropylamino)quinazolin-6-yl)benzyl)methane sulfonamide], for which the concentration for half-maximal inhibition (IC50) was 4.61 µM. Take `CN(Cc1cccc(-c2ccc3ncnc(NC4CC4)c3c2)c1)S(C)(=O)=O` [Example 223, N-(3-(4-(cyclopropylamino)quinazolin-6-yl)benzyl)-N-methyl methane sulfonamide]: the “% Inhibition of mGluR5 Receptor (pig) [^3H]-MPEP Bond at 10 μM” value (10 μM compound) is on record as 51%. `O=S(=O)(CC(F)(F)F)N(Cc1cccc(-c2ccc3ncnc(NC4CC4)c3c2)c1)C1CC1` [Example 225, N-cyclopropyl-N-(3-(4-(cyclopropylamino)quinazolin-6-yl)benzyl)-2,2,2-trifluoroethane sulfonamide]: the IC50 stood at 1.48 µM. Regarding `O=S(=O)(c1ccc(C(F)(F)F)cc1)N(Cc1cccc(-c2ccc3ncnc(NC4CC4)c3c2)c1)C1CC1` [Example 226, N-cyclopropyl-N-(3-(4-(cyclopropylamino)quinazolin-6-yl)benzyl)-4-(trifluoromethyl)benzole sulfonamide], the half-maximal inhibitory concentration (IC50) is 2.64 µM. Turning to `O=S(=O)(c1ccccc1)N(Cc1cccc(-c2ccc3ncnc(NC4CC4)c3c2)c1)C1CC1` [Example 227, N-cyclopropyl-N-(3-(4-(cyclopropylamino)quinazolin-6-yl)benzyl)benzole sulfonamide], the IC50 came to 2.57 µM. Still for that read-out and setting: in the case of `O=C1C2CCCCC2C(=O)N1Cc1cccc(-c2ccc3ncnc(NC4CC4)c3c2)c1` (stereo not drawn) [Example 228, 2-[3-(4-cyclopropylamino-quinazolin-6-yl)-benzyl]-hexahydro-isoindole-1,3-dione; hydrochloride] it was 8.7 µM; in that of `O=C1CC(c2ccccc2)C(=O)N1Cc1cccc(-c2ccc3ncnc(NC4CC4)c3c2)c1` (stereo not drawn) [Example 229, 1-[3-(4-cyclopropylamino-quinazolin-6-yl)-benzyl]-3-phenyl-pyrrolidine-2,5-dione; hydrochloride], 3.5 µM. For `CC(c1cccc(-c2ccc3ncnc(NC4CC4)c3c2)c1)N(C1CC1)S(C)(=O)=O` (stereo not drawn) [Example 231, N-cyclopropyl-N-(1-(3-(4-(cyclopropylamino)quinazolin-6-yl)phenyl)ethyl)methane sulfonamide], the half-maximal inhibitory concentration (IC50) came to 5.72 µM. Same read-out and setting: the same measure for `CC(=O)N(Cc1ccc(-c2ccc3ncnc(NC4CC4)c3c2)o1)C1CC1` [Example 232, N-cyclopropyl-N-[5-(4-cyclopropylamino-quinazolin-6-yl)-furan-2-yl-methyl]-acetamide]: 4.27 µM; for `CC(c1cccc(-c2ccc3ncnc(NC4CC4)c3c2)c1)N(C(=O)c1ccccc1)C1CC1` (stereo not drawn) [Example 233, N-cyclopropyl-N-{1-[3-(4-cyclopropylamino-quinazolin-6-yl)-phenyl]-ethyl}-benzamide]: 0.82 µM.

Take `CS(=O)(=O)N(Cc1cncc(-c2ccc3ncnc(NC4CC4)c3c2)c1)C1CC1` [Example 234, N-cyclopropyl-N-[5-(4-cyclopropylamino-quinazolin-6-yl)-pyridin-3-yl-methyl]-methane sulfonamide]: under “10 μM compound”, the inhibition at 10 µM worked out at 41%.

Regarding `CC(=O)N(C1CC1)C(C)c1cccc(-c2ccc3ncnc(NC4CC4)c3c2)c1` (stereo not drawn) [Example 235, N-cyclopropyl-N-{1-[3-(4-cyclopropylamino-quinazolin-6-yl)-phenyl]-ethyl}-acetamide], the IC50 came out at 7.35 µM. As for `COC(=O)CC(=O)N(Cc1cccc(-c2ccc3ncnc(NC4CC4)c3c2)c1)C1CC1` [Example 237, N-cyclopropyl-N-[3-(4-cyclopropylamino-quinazolin-6-yl)-benzyl]-methyl malonate], the IC50 amounted to 0.57 µM. As for `COC(=O)C(=O)N(Cc1cccc(-c2ccc3ncnc(NC4CC4)c3c2)c1)C1CC1` [Example 238, N-cyclopropyl-N-[3-(4-cyclopropylamino-quinazolin-6-yl)-benzyl]-methyl oxalate], the concentration for half-maximal inhibition (IC50) was found to be 0.5 µM.

As for `CC(=O)N(Cc1cc(C)cc(-c2ccc3ncnc(NC4CC4)c3c2)c1)C1CC1` [Example 239, N-cyclopropyl-N-[3-(4-cyclopropylamino-quinazolin-6-yl)-5-methyl-benzyl]-acetamide], the 50% inhibitory concentration (IC50) is 4.12 µM. Regarding `CC(=O)N(Cc1cncc(-c2ccc3ncnc(NC4CC4)c3c2)c1)C1CC1` [Example 240, N-cyclopropyl-N-[5-(4-cyclopropylamino-quinazolin-6-yl)-pyridin-3-yl-methyl]-acetamide], under “10 μM compound”, the inhibition at 10 µM was 47%. Take `O=C1c2ccccc2C(=O)N1Cc1cccc(-c2ccc3ncnc(NC4CC4)c3c2)c1` [Example 241, 2-[3-(4-cyclopropylamino-quinazolin-6-yl)-benzyl]-isoindole-1,3-dione; hydrochloride]: where the note is “10 μM compound”, the inhibition at 10 µM was determined as 33%. Consider `O=C1C2CCCCC2C(=O)N1Cc1cccc(-c2ccc3ncnc(NC4CC4)c3c2)c1` (stereo not drawn) [Example 242, 2-[3-(4-cyclopropylamino-quinazolin-6-yl)-benzyl]-hexahydro-isoindole-1,3-dione hydrochloride], for which the IC50 amounted to 3.08 µM.

Turning to `O=C1CC2(CCCC2)CC(=O)N1Cc1cccc(-c2ccc3ncnc(NC4CC4)c3c2)c1` [Example 243, 8-[3-(4-cyclopropylamino-quinazolin-6-yl)-benzyl]-8-aza-spiro[4.5]decane-7,9-dione; hydrochloride], under “10 μM compound”, the inhibition at 10 µM was found to be 39%.

For the molecule `O=C(c1ccccc1)N(Cc1c(F)ccc(-c2ccc3ncnc(NC4CC4)c3c2)c1F)C1CC1` [Example 244, N-cyclopropyl-N-[3-(4-cyclopropylamino-quinazolin-6-yl)-2,6-difluoro-benzyl]-benzamide], the IC50 is 0.22 µM. As for `CS(=O)(=O)N(Cc1c(F)ccc(-c2ccc3ncnc(NC4CC4)c3c2)c1F)C1CC1` [Example 246, N-cyclopropyl-N-(3-(4-(cyclopropylamino)quinazolin-6-yl)-2,6-difluorobenzyl)methane sulfonamide], the half-inhibitory concentration (IC50) worked out at 0.35 µM. Consider `CC(C)NC(=O)N(Cc1cccc(-c2ccc3ncnc(NC4CC4)c3c2)c1)C1CC1` [Example 247, 1-cyclopropyl-1-[3-(4-cyclopropylamino-quinazolin-6-yl)-benzyl]-3-isopropyl-urea], for which the IC50 was determined as 7.34 µM. On to `O=C(c1cccnc1)N(Cc1cccc(-c2ccc3ncnc(NC4CC4)c3c2)c1)C1CC1` [Example 248, N-cyclopropyl-N-[3-(4-cyclopropylamino-quinazolin-6-yl)-benzyl]-nicotinamide], for which the IC50 stood at 3.15 µM. On the same count and under the same terms, in the case of `CC(=O)N(Cc1c(F)ccc(-c2ccc3ncnc(NC4CC4)c3c2)c1F)C1CC1` [Example 249, N-cyclopropyl-N-[3-(4-cyclopropylamino-quinazolin-6-yl)-2,6-difluoro-benzyl]-acetamide] it was 0.14 µM. In the case of `CS(=O)(=O)N(Cc1cc(-c2ccc3ncnc(NC4CC4)c3c2)ccc1F)C1CC1` [Example 251, N-cyclopropyl-N-(5-(4-(cyclopropylamino)quinazolin-6-yl)-2-fluorobenzyl)methane sulfonamide], the inhibition at 10 µM (10 μM compound) was determined as 30%. `COCC(=O)N(Cc1cccc(-c2ccc3ncnc(NC4CC4)c3c2)c1)C1CC1` [Example 252, N-cyclopropyl-N-[3-(4-cyclopropylamino-quinazolin-6-yl)-benzyl]-2-methoxy-acetamide]: the IC50 stood at 0.92 µM.
